Results published in PubChem BioAssay (NCI).
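In this assay, cells in 96-well plates receive the compound at five concentrations for 48 hours. Endpoints are linearly interpolated between the surrounding concentrations. GI50 = concentration required for 50% inhibition of growth. TGI is the concentration that stops growth completely.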

Assays:
Assay in all cases: NCI tumour cell line growth inhibition, 48 h
RXF 393 renal = tested on: RXF 393 renal
OVCAR-8 ovarian = tested on: OVCAR-8 ovarian
EKVX NSCLC = tested on: EKVX NSCLC
SNB-19 CNS = tested on: SNB-19 CNS
SN12C renal = tested on: SN12C renal
OVCAR-5 ovarian = tested on: OVCAR-5 ovarian
HCT-15 colon = tested on: HCT-15 colon
ACHN renal = tested on: ACHN renal
T-47D breast = tested on: T-47D breast
NCI-H226 lung = tested on: NCI-H226 lung

| SMILES | GI50 (RXF 393 renal) [µM] | TGI (RXF 393 renal) [µM] | GI50 (OVCAR-8 ovarian) [µM] | TGI (OVCAR-8 ovarian) [µM] | GI50 (EKVX NSCLC) [µM] | TGI (EKVX NSCLC) [µM] | GI50 (SNB-19 CNS) [µM] | TGI (SNB-19 CNS) [µM] | GI50 (SN12C renal) [µM] | TGI (SN12C renal) [µM] | GI50 (OVCAR-5 ovarian) [µM] | TGI (OVCAR-5 ovarian) [µM] | GI50 (HCT-15 colon) [µM] | TGI (HCT-15 colon) [µM] | GI50 (ACHN renal) [µM] | TGI (ACHN renal) [µM] | GI50 (T-47D breast) [µM] | TGI (T-47D breast) [µM] | GI50 (NCI-H226 lung) [µM] | TGI (NCI-H226 lung) [µM] |
| --- | --- | --- | --- | --- | --- | --- | --- | --- | --- | --- | --- | --- | --- | --- | --- | --- | --- | --- | --- | --- |
| CCCCN1CCCC[C@@H]1C(=O)N[C@H](C(=O)N(C)[C@H](C[C@@H](OC(C)=O)c1nc(C(=O)NC2CCC(C(=O)OC)CC2)cs1)C(C)C)C(C)C (some centres undefined) | 0.995 | 11.6 | 2.1 | > 25 | 1.15 | > 25 | 1.83 | > 25 | 2.15 | > 25 | 4.75 | > 25 | 0.851 | 16.8 | 2.39 | > 25 | 1.62 | > 25 | 3.84 | > 25 |
| COc1ccc(C#Cc2ccc(=O)oc2-c2cc(OC)c(OC)c(OC)c2)cc1O | 1.12 | 8.43 | 10.6 | > 100 | 22.2 | > 100 | 18 | > 100 | 20.7 | > 100 | 24 | > 100 | 2.86 | > 100 | 17.2 | > 100 | – | > 100 | > 34 | > 100 |
| O=c1c2ccc(S(=O)(=O)c3ccc4c(=O)n5c6ccccc6nc5c5cccc3c45)c3cccc(c32)c2nc3ccccc3n12 | – | 34.5 | – | > 100 | – | > 100 | – | 37.9 | – | > 100 | – | > 100 | – | > 100 | – | 30.2 | – | 99.3 | – | > 100 |
| O=C1/C(=C/c2ccccc2)CN(C(=O)C(Cl)Cl)C/C1=C\c1ccccc1 | 0.914 | 2.33 | 0.442 | 1.68 | 0.894 | 3.06 | 0.495 | 1.78 | 0.43 | 1.26 | 1.06 | 2.85 | 0.248 | 0.77 | 0.438 | 1.44 | 1.19 | 4.11 | 1.22 | 5.17 |
| BrC(Br)=C1C(=C(Br)Br)C(Br)C1Br (centres undefined) | – | 0.948 | – | 5.46 | – | 4.98 | – | 15.5 | – | 2.31 | – | 3.27 | – | 1.73 | – | 1.49 | – | > 100 | – | 0.67 |
| COc1cc(Oc2c(C)c(Cl)c(OC)c(Cl)c2OC)c2c(c1Cl)COC2=O | – | > 100 | – | > 100 | – | > 100 | – | > 100 | – | 59.7 | – | > 100 | – | > 100 | – | 62.9 | – | > 100 | – | > 100 |
| CC(=O)Nc1cc2cc(N)ccc2oc1=O | – | > 100 | – | > 100 | – | > 100 | – | > 100 | – | > 100 | – | > 100 | – | > 100 | – | > 100 | – | > 100 | – | > 100 |
| COC(=O)c1ccc2c(c1)C(=O)c1c-2n(CCCCl)c(=O)c2cc([N+](=O)[O-])ccc12 | > 100 | > 100 | > 100 | > 100 | > 100 | > 100 | 56.6 | > 100 | > 100 | > 100 | > 100 | > 100 | > 100 | > 100 | 45.2 | > 100 | 92 | > 100 | > 100 | > 100 |
| C=C(CN1CCN(c2ccc(C(F)(F)F)cc2)CC1)c1ccc(C(=O)Nc2ccccc2N)cc1 | 1.97 | 6 | 6.95 | > 100 | 12.3 | > 100 | 12.5 | 73.5 | 6.37 | > 100 | > 100 | > 100 | > 100 | > 100 | 9.64 | > 100 | 21.8 | > 100 | 7.51 | > 60.5 |
| CC/C=C\C[C@H](F)C/C=C1/C(=O)C=C[C@@H]1C/C=C\CCCC(=O)OC | 6.95 | 14.3 | 2.05 | 12.2 | 5.17 | 12 | 2.35 | 9.23 | 1.25 | 3.24 | 3.35 | 12.4 | 1.19 | 4.42 | 2.46 | 9.07 | 1.42 | 5.57 | 22.2 | 44.6 |
| C=C1CC2(CC(c3ccccc3Cl)OC(c3ccccc3Cl)C2)OC1=O (centres undefined) | – | 4.77 | – | 4.71 | – | 15.2 | – | 29.5 | – | 5.75 | – | 16.5 | – | 5.58 | – | 9.82 | – | 3.22 | – | 21.3 |
